According to US9663789B2, “PME-1 as a biomarker to predict and diagnose endometrial and breast cancer and gene silencing of PME-1 to inhibit epithelial to mesenchymal transition” (MEDICAL DIAGNOSTIC LABORATORIES, LLC, priority 2013, dated 2017):

Tested on: RL95-2 cells
Test: Immunofluorescence of mitotic cells (phosphorylated histone H3 Ser10)
Format: cell-based, human
Conditions: RL95-2, compared to control cells
Experimental: Endometrial cancer cells were stained for phosphorylated histone H3 on serine 10, a marker of mitotic cells, followed by counterstaining with DAPI (FIG. 12) to identify all cells.
For analysis of patient samples, tissues were blocked for 2 hours with 10% FBS in TBST for at RT, incubated with each primary antibody (together) overnight at 4° C., washed three times for 15 min in TBST, incubated with each secondary fluorescent antibody (together) for 1 hr at RT, washed again as above, stained with DAPI and mounted with cover-slips using vectashield mounting media (Vector Labs). Primary antibodies used were for PME-1 (Santa Cruz), E-cadherin (Millipore), and vimentin (Genscript). 1×10^3RL95-2 cells were plated on a chamber slide and were incubated overnight at 37° C. Slides were fixed with 4% paraformaldehyde (PFA) on ice for two hours. The cells were incubated with the primary antibody to Histone 3 (pH3) phosphorylated at Ser10 (1:200, Cell Signaling Technologies) overnight and developed with the secondary anti-rabbit Alexa-Fluor 555 antibody (Cell Signaling Technologies). DAPI was used as a nuclear counter-stain (Sigma Aldrich). Images were taken with the Nikon Eclipse TE2000 at 20×.

Substance: shRNA (SEQ ID NO: 2): lentiviral shRNA against PPME1, target sequence SEQ ID NO: 2 GCAGCGATTATTAGTAGAGTT, bp 289-309; hairpin SEQ ID NO: 8 (CCGGGCAGCGATTATTAGTAGAGTTCTCGAGAACTCTACTAATAATCGCTGCTTTTT; listed as Homo sapiens)
- decreased proliferation (phospho-histone H3 positive cells): ~30%
